Results on one compound are retold here after patent publication US20250296934A1, “AZEPINOINDOLES AND METHODS OF PREPARATION THEREOF” (priority 2022, published 2025).

This series can be described thus: In vitro hepatocyte clearance, mouse. The following applies: Mouse hepatocytes. It counts as in vitro ADME. How it is done:
Additional experimentation was performed on compounds 1, W5, and A93. Table 6a, 6b and 6c summarize, among other things, the anticipated hepatic clearance of compounds 1, W5 and A93 respectively, in various species, as specified in Table 6a, 6b and 6c and as determined by calculating the in vitro hepatocyte clearance over time and scaling such rate with such species' hepatocyte count and the anticipated liver blood flow rate in such species.

Molecules are shown by their SMILES.

Regarding `Cc1ccc(O)c2c3c([nH]c12)CCNCC3` [Cpd #1 (Pharm-136), 7-Methyl-1,2,3,4,5,6-hexahydroazepino[4,5-b]indol-10-ol], the hepatocyte CLint (usually the rate of metabolic loss divided by the concentration) came to 33 µL/min/1e6 cells. The half-life (read-out: In vitro T1/2) is 42.2 min. Besides, where the note is “read-out: Scale-up Clint”, the CLint scaled amounted to 389 mL/min/kg.
